From ChEMBL document CHEMBL5038649, “Chemical Space Expansion of Flavonoids: Induction of Mitotic Inhibition by Replacing Ring B with a 10π-Electron System, Benzo[b]thiophene” (J Nat Prod, 2022) come the findings set out here.

Each structure is given as a SMILES string. The source made the active and inactive calls. No cut-off for these calls is given here.

One experiment concerns the target Tubulin (Homo sapiens) (UniProt P68371+Q9H4B7+P0DPH7+P68366+Q13509+Q71U36+P04350+Q3ZCM7+P07437+P68363+Q9BQE3+Q6PEY2+Q13885+Q9BVA1+Q9BUF5). Briefly: Induction of microtubule depolymerization in human MDA-MB-231 cells assessed as spindle formation incubated for 24 hrs by immunofluorescence staining based confocal microscopic analysis. Format: cell-based.
In experiment [1] the test system is MDA-MB-231. Put plainly: Cell cycle arrest in human MDA-MB-231 cells assessed as accumulation at G2/M phase incubated for 24 hrs by propidium iodide staining based flow cytometric analysis. Format: functional. For orientation: A flow cytometer gives signals particle by particle.
The next experiment relates to A549. Put plainly: Antiproliferative activity against human A549 cells assessed as reduction in cell viability after 72 hrs by SRB assay. Format: functional, cell-based. The following applies: A549, 72 h. In general terms: The SRB assay estimates cell density from bound dye.
The nature of experiment [2]: Antiproliferative activity against human KB-VIN cells assessed as reduction in cell viability after 72 hrs by SRB assay. Format: functional, cell-based. As to conditions: KBVIN.
Experiment [3] concerns MDA-MB-231. Briefly: Antiproliferative activity against human MDA-MB-231 cells assessed as reduction in cell viability after 72 hrs by SRB assay. Format: functional, cell-based. The following applies: MDA-MB-231, 72 h.
A further experiment concerns MCF7. Briefly: Antiproliferative activity against human MCF7 cells assessed as reduction in cell viability after 72 hrs by SRB assay. As to conditions: MCF7, 72 h. Format: functional, cell-based.
For another experiment, the system named is KB. Briefly: Antiproliferative activity against human KB cells assessed as reduction in cell viability after 72 hrs by SRB assay. Format: functional, cell-based.

Regarding `COc1ccc(/C=C\c2cc(OC)c(OC)c(OC)c2)cc1O`, the result at Tubulin (Homo sapiens) was Active. Moreover, the Activity result in the experiment with MDA-MB-231 [1] was “Dose-Dependent Effect”.
For the compound `COc1cc2c(c(OC)c1OC)O/C(=C\c1csc3ccccc13)C2=O`, the IC50 (as a rule, the midpoint of a concentration-inhibition curve) worked out at 0.59 µM in the experiment with A549; 0.48 µM in experiment [2]; 0.8 µM with MDA-MB-231 [3]; 0.75 µM in the experiment on MCF7; 0.61 µM in the experiment with KB. The outcome at Tubulin (Homo sapiens) was inactive. For the same compound, the Activity result in the experiment on MDA-MB-231 [1] was “Dose-Dependent Effect”.
Turning to `COc1cc2occ(-c3csc4ccccc34)c(=O)c2c(OC)c1OC`, the IC50 in the experiment with A549 is 0.64 µM; in experiment [2], 0.51 µM; in the experiment on MDA-MB-231 [3], 0.82 µM; with MCF7 it was 0.74 µM; in the experiment on KB, 0.82 µM. Besides, on Tubulin (Homo sapiens), the result was inactive. Also, the Activity entry in the experiment with MDA-MB-231 [1] was “Dose-Dependent Effect”.
Turning to `CC(C)Oc1ccc(/C=C/C(=O)c2csc3ccccc23)cc1`, the half-maximal inhibitory concentration (IC50) (in the experiment with A549; in experiment [2]; with MDA-MB-231 [3]; in the experiment on MCF7; with KB) was greater than 10 µM in each case.
`COc1c(OC(C)C)cc2occ(-c3csc4ccccc34)c(=O)c2c1OC(C)C`: the IC50 was 8.9 µM in the experiment with A549; 7.3 µM in experiment [2]; greater than 10 µM with MDA-MB-231 [3]; greater than 10 µM in the experiment on MCF7; greater than 10 µM with KB.
For `O=C(/C=C/c1cc2ccccc2s1)c1cc(Br)ccc1O`, the IC50 (in the experiment with A549; in experiment [2]; in the experiment on MDA-MB-231 [3]; in the experiment on MCF7; in the experiment on KB) was greater than 10 µM in each case.
For the compound `COc1c(OC(C)C)cc2c(c1O)C(=O)/C(=C/c1csc3ccccc13)O2`, the IC50 (with A549; in experiment [2]; in the experiment with MDA-MB-231 [3]; with MCF7; with KB) was greater than 10 µM each time.
`COc1cccc(/C=C/C(=O)c2csc3ccccc23)c1`: the IC50 in the experiment on A549 was found to be 5.5 µM; in experiment [2] it was 5.4 µM; in the experiment on MDA-MB-231 [3], 6.2 µM; in the experiment on MCF7, 7.5 µM; with KB it was 5.7 µM.
As to `O=C(/C=C/c1csc2ccccc12)c1ccccc1O`, the IC50 in the experiment on A549 came to 5.3 µM; in experiment [2] it was 5.4 µM; with MDA-MB-231 [3] it was 5.3 µM; in the experiment with MCF7, 6.6 µM; with KB, 6.2 µM.
As to `CC(C)Oc1ccc(O)c(C(=O)/C=C/c2csc3ccccc23)c1`, the IC50 with A549 amounted to 6.4 µM; in experiment [2], 5.6 µM; in the experiment with MDA-MB-231 [3], 8.5 µM; in the experiment on MCF7, 6.6 µM; in the experiment on KB it was 10 µM.
Consider `O=c1c(-c2csc3ccccc23)coc2ccccc12`, for which the IC50 (with A549; in experiment [2]; in the experiment with MDA-MB-231 [3]; in the experiment on MCF7; in the experiment with KB) was greater than 10 µM throughout.
Consider `O=C(/C=C/c1c[nH]c2ccccc12)c1cc(Cl)ccc1O`, for which the IC50 in the experiment with A549 is 0.75 µM; in experiment [2], 0.8 µM; in the experiment on MDA-MB-231 [3], 0.99 µM; in the experiment with MCF7 it was 5.7 µM; in the experiment on KB it was 0.91 µM.
As for `COc1cc2occ(-c3csc4ccccc34)c(=O)c2cc1OC`, the IC50 (in the experiment with A549; in experiment [2]; in the experiment with MDA-MB-231 [3]; in the experiment on MCF7; in the experiment with KB) was greater than 10 µM in each case.
As to `O=C(/C=C/c1csc2ccccc12)c1c(O)ccc2ccccc12`, the IC50 in the experiment with A549 came out at 0.58 µM; in experiment [2], 0.48 µM; in the experiment on MDA-MB-231 [3], 0.8 µM; in the experiment with MCF7 it was 0.89 µM; with KB, 0.64 µM. For the same compound, at Tubulin (Homo sapiens), the outcome was Active. Further, the Activity entry with MDA-MB-231 [1] is “Dose-Dependent Effect”.
For `O=C(/C=C/c1ccccc1)c1ccccc1` [CHALCONE], the IC50 (in the experiment with A549; in experiment [2]; in the experiment on MDA-MB-231 [3]; with MCF7; in the experiment with KB) was greater than 10 µM each time.
`COc1cc2occ(-c3csc4ccccc34)c(=O)c2c(OC)c1O`: the IC50 (with A549; in experiment [2]; in the experiment on MDA-MB-231 [3]; in the experiment on MCF7; in the experiment on KB) was greater than 10 µM throughout.
Turning to `COc1c(OC(C)C)cc2ccc(-c3cc(=O)c4ccccc4o3)cc2c1OC(C)C`, the IC50 is greater than 10 µM with A549; 8.2 µM in experiment [2]; greater than 10 µM in the experiment with MDA-MB-231 [3]; greater than 10 µM in the experiment with MCF7; greater than 10 µM in the experiment with KB.
